Measured values published in US20080287662A1, “Balanites Aegyptiaca Saponins and Uses Thereof” (priority 2005, published 2008).
Marks after values point to notes of the source that are not given here. Values belong to the compound of their own block, whether it stands above or below them.

Tests used:
[1] = tested on: Aedes aegypti mosquito larvae; assay: Effect of purified main mesocarp saponin on Aedes aegypti larvae, pupa and adults; type: in vivo
Protocol: Eggs of laboratory-grown Aedes aegypti were hatched in tap water in a growth chamber with a 16-hour photoperiod, at a temperature of 25±3° C. Twenty to twenty five larvae at the late 3rd and early 4th instars were placed into 150-ml disposable plastic cups containing 100 ml of tap water together with water-soluble saponin solutions of various concentrations. During the experiments, treated and control (0 mg/L saponin) cups were examined after 2, 4, 9 and 11 days and number of alive larvae or adults were counted. The data are presented in percentage together with an analysis of variance using the Tukey-Kramer HSD test (SAS's JMP software) at the 0.01 level of significance.

Pythium aphanidermatum = assay: Mycelial colony growth inhibition in vitro; type: cell-based
Protocol: Cultures of Pythium aphanindermatum were isolated from plant species showing Pythium symptoms. The isolate was placed in potato dextrose agar (PDA, Difco, Detroit, Mich., USA) supplemented with 100 ppm of streptomycin and incubated in the dark at 27° C. for 2 days. The colony of Pythium was identified visually and microscopically and sub-cultured on PDA without antibiotics as described by Tsror et al (2001).
For fungal growth inhibition measurements five concentrations of Balanites mesocarp saponin (ME) preparation (0.1, 0.5, 1.0, 2.0 and 4.0% w/v) and two concentrations of Metalaxyl-10 (a systemic benzenoid fungicide, 1 and 5 ppm as positive control) were added in separate Erlenmeyer flasks containing sterilized (121° C., 2 atm, 20 min) PDA, and mixed properly. Samples of PDA containing Balanites mesocarp saponin preparation and Metalaxyl-10 (15 ml) were poured into sterilized petri dishes separately and allowed to solidify. 5 mm in diameter agar plug of the fungal isolate was placed in the center of each plate. The plates were incubated at 27° C. (10 plates per treatment). The colony diameter of the mycelial growth was measured after 24 and 48 h and the inhibitory activity of each treatment was expressed as the growth inhibition percentage as compared to the negative control (0% ME preparation) using the formula: Growth inhibition percentage=[100-(Treatment growth/Control growth*100)].

Escherichia coli = assay: Bacterial growth in LB (OD660); type: cell-based
Protocol: Standard Luria Broth solution (LB) was prepared using […] yeast extract, 10 mg NaCl and 10 mg Typtone per ml of DDW. A small portion of the Escherichia coil inoculum (LMC1492 strain, obtained from the Life Sciences Department of the Ben-Gurion University) was added to the LB solution in a sterilized Erlenmeyer and inoculated in a rotary water bath incubator at 250 rpm and 37° C. The tested extracts were first prepared in 5% in LB solution and used as stock solution for further dilution. Lower concentrations were obtained by mixing this stock solution in the required ratios with plain LB solution. The extract containing solution of the required concentrations were prepared in 10/140 mm glass test tubes in volumes of 1.8 ml each and incubated in a rotary water bath incubator (Gyvotory-676, New Brunswick Scientific Co. Inc, NY) at 250 rpm and 37° C.

mung bean cuttings = assay: Rooting of mung bean cuttings; type: in vivo; conditions: IBA 100 μM, saponins 100 ppm; rooting assessed seven days
Protocol: This effect was increased as saponin concentration increased up to 500 ppm for Balanites mesocarp extract saponins and 50 ppm for Balanites root extract saponins, and up to 100 ppm for Quillaja saponaria bark extract saponins. The treatment solution was replaced by fresh water after 24 h and the rooting was assessed 10 days after the initiation of the experiment. The stimulating effect of saponins on root formation may be related to their hormone-like effect, but their effect on root elongation seems to be mainly due to their influence on increase of water uptake. The enhancing effect of saponins on rooting of mung bean cuttings when applied together with the synthetic plant hormone indole-3-butyric acid (IBA) is shown in Table 17. […] Similar, but weaker, enhancing effect was found with Quillaja bark extract saponins (the treatment solution was replaced by fresh water after 24 h and the rooting was assessed seven days after the initiation of the experiment).

[2] = tested on: mung bean seeds and seedlings; assay: Mung bean germination, growth and development under saline water irrigation; type: in vivo; parameters: key to Germination (4 days): ++++ more advanced seedling; typical germination using tap water +++ (1 cm height with two leave starting to be expended); ++ less advanced seedling; + not germinated seedling; key to Foliage (14 days): aaaa more elongated seedlings; Typical mung bean foliage development 14 days after germination using tap water aaa (~10 cm seedling with fully expanded two leave and abscised cotyledons); aa less elongated seedlings; a dwarf seedling; key to Root: bbbb more elongated and branched roots; Typical mung bean root system 14 days after germination using tap water bbb (~6 cm well branched roots); bb less elongated roots; b short and necrotic root system; conditions: for Root: 14 days after germination
Protocol: Addition of Balanites mesocarp extract (ME) saponins in moderate concentration of […] to the irrigation saline water stimulated the germination and development of mung bean seeds in comparison to control. It also stimulated the germination of the seeds in comparison to control and to saline treatments. The effect on the foliage and the roots of the treated mung bean seedlings corresponded to the effect on the germination. These effects are directly related to the effect of Balanites mesocarp saponin treatment on water uptake by the mung bean seeds and germinated seedlings.

[3] = Vitamin C delivery through isolated rat skin; type: in vitro ADME; conditions: 25° C., 60% relative humidity
Protocol: The effect of Balanites mesocarp saponin preparation on delivery of vitamin C through the skin was tested using isolated rat skin system. 100 μl of saponin nanovesicles containing encapsulated vitamin C (2 mg) were prepared from saponin extracted from Balanites mesocarp by the procedure A described in Example 5(i) above. 15 μl of the preparation were loaded on an isolated rat skin in three replicates. The treatments were applied in a controlled environment (25° C. and 60% relative humidity) and incubated for 30 or 60 min. The solution delivered through the isolated skin was tested using an HPLC system for detecting the level of vitamin C corresponding to a standard peak of vitamin C.

[4] = Penetration rate of 14C-labeled 2,4-D across isolated leaf cuticle membranes with saponin adjuvant; parameters: species or system Citrus grandis; conditions: 1% (w/v) adjuvant, 30° C. and 30% RH

Compound: CC(CCC1(O)O[C@H]2C[C@H]3[C@@H]4CC=C5C[C@@H](O[C@@H]6O[C@H](CO)[C@@H](O[C@@H]7O[C@H](CO)[C@@H](O)[C@H](O)[C@H]7O)[C@H](O)[C@H]6O[C@@H]6O[C@@H](C)[C@H](O)[C@@H](O)[C@H]6O)CC[C@]5(C)[C@H]4CC[C@]3(C)[C@H]2[C@@H]1C)CO[C@@H]1O[C@H](CO)[C@@H](O)[C@H](O)[C@H]1O (stereo partly drawn) [26-(O-β-D-glucopyranosyl)-3β,22,26-trihydroxyfurost-5-ene 3-O-β-D-glucopyranosyl-(1→4)-[α-L-rhamnopyranosyl-(1→2)]-β-D-glucopyranoside]
% adults ([1]; 10 ppm, day 0): 0%
% dead larvae ([1]; 10 ppm, day 0): 0%
% pupa ([1]; 10 ppm, day 0): 0%
% adults ([1]; 10 ppm, day 2): 0%
% dead larvae ([1]; 10 ppm, day 2): 0 d %
% pupa ([1]; 10 ppm, day 2): 0%
% adults ([1]; 10 ppm, day 4): 0%
% dead larvae ([1]; 10 ppm, day 4): 0 d %
% pupa ([1]; 10 ppm, day 4): 41 ab %
% adults ([1]; 10 ppm, day 9): 41 bc %
% dead larvae ([1]; 10 ppm, day 9): 0 d %
% pupa ([1]; 10 ppm, day 9): 0 b %
% adults ([1]; 10 ppm, day 11): 87 a %
% dead larvae ([1]; 10 ppm, day 11): 1.25 d %
% pupa ([1]; 10 ppm, day 11): 0%
% adults ([1]; 100 ppm, day 0): 0%
% dead larvae ([1]; 100 ppm, day 0): 0%
% pupa ([1]; 100 ppm, day 0): 0%
% adults ([1]; 100 ppm, day 2): 0%
% dead larvae ([1]; 100 ppm, day 2): 0 d %
% pupa ([1]; 100 ppm, day 2): 0%
% adults ([1]; 100 ppm, day 4): 0%
% dead larvae ([1]; 100 ppm, day 4): 0 d %
% pupa ([1]; 100 ppm, day 4): 45 a %
% adults ([1]; 100 ppm, day 9): 70 a %
% dead larvae ([1]; 100 ppm, day 9): 6.25 d %
% pupa ([1]; 100 ppm, day 9): 0 b %
% adults ([1]; 100 ppm, day 11): 85 a %
% dead larvae ([1]; 100 ppm, day 11): 6.25 cd %
% pupa ([1]; 100 ppm, day 11): 0%
% adults ([1]; 300 ppm, day 0): 0%
% dead larvae ([1]; 300 ppm, day 0): 0%
% pupa ([1]; 300 ppm, day 0): 0%
% adults ([1]; 300 ppm, day 2): 0%
% dead larvae ([1]; 300 ppm, day 2): 50 c %
% pupa ([1]; 300 ppm, day 2): 0%
% adults ([1]; 300 ppm, day 4): 0%
% dead larvae ([1]; 300 ppm, day 4): 50 c %
% pupa ([1]; 300 ppm, day 4): 15 bc %
% adults ([1]; 300 ppm, day 9): 15 d %
% dead larvae ([1]; 300 ppm, day 9): 50 c %
% pupa ([1]; 300 ppm, day 9): 33.25 a %
% adults ([1]; 300 ppm, day 11): 50 b %
% dead larvae ([1]; 300 ppm, day 11): 48.75 bc %
% pupa ([1]; 300 ppm, day 11): 0%
% adults ([1]; 500 ppm, day 0): 0%
% dead larvae ([1]; 500 ppm, day 0): 0%
% pupa ([1]; 500 ppm, day 0): 0%
% adults ([1]; 500 ppm, day 2): 0%
% dead larvae ([1]; 500 ppm, day 2): 77.5 b %
% pupa ([1]; 500 ppm, day 2): 0%
% adults ([1]; 500 ppm, day 4): 0%
% dead larvae ([1]; 500 ppm, day 4): 78.75 b %
% pupa ([1]; 500 ppm, day 4): 9.5 c %
% adults ([1]; 500 ppm, day 9): 20 cd %
% dead larvae ([1]; 500 ppm, day 9): 78.25 b %
% pupa ([1]; 500 ppm, day 9): 1.75 b %
% adults ([1]; 500 ppm, day 11): 22.5 c %
% dead larvae ([1]; 500 ppm, day 11): 78.25 ab %
% pupa ([1]; 500 ppm, day 11): 0%
% adults ([1]; 800 ppm, day 0): 0%
% dead larvae ([1]; 800 ppm, day 0): 0%
% pupa ([1]; 800 ppm, day 0): 0%
% adults ([1]; 800 ppm, day 2): 0%
% dead larvae ([1]; 800 ppm, day 2): 95 a %
% pupa ([1]; 800 ppm, day 2): 0%
% adults ([1]; 800 ppm, day 4): 0%
% dead larvae ([1]; 800 ppm, day 4): 95 a %
% pupa ([1]; 800 ppm, day 4): 1.75 c %
% adults ([1]; 800 ppm, day 9): 0 d %
% dead larvae ([1]; 800 ppm, day 9): 93.75 a %
% pupa ([1]; 800 ppm, day 9): 0 b %
% adults ([1]; 800 ppm, day 11): 5 c %
% dead larvae ([1]; 800 ppm, day 11): 94.25 a %
% pupa ([1]; 800 ppm, day 11): 0%
% adults ([1]; 1000 ppm, day 0): 0%
% dead larvae ([1]; 1000 ppm, day 0): 0%
% pupa ([1]; 1000 ppm, day 0): 0%
% adults ([1]; 1000 ppm, day 2): 0%
% dead larvae ([1]; 1000 ppm, day 2): 90 a %
% pupa ([1]; 1000 ppm, day 2): 0%
% adults ([1]; 1000 ppm, day 4): 0%
% dead larvae ([1]; 1000 ppm, day 4): 94 a %
% pupa ([1]; 1000 ppm, day 4): 3.75 c %
% adults ([1]; 1000 ppm, day 9): 3.75 d %
% dead larvae ([1]; 1000 ppm, day 9): 93.75 a %
% pupa ([1]; 1000 ppm, day 9): 0 b %
% adults ([1]; 1000 ppm, day 11): 3.75 c %
% dead larvae ([1]; 1000 ppm, day 11): 96.25 a %
% pupa ([1]; 1000 ppm, day 11): 0%
% Growth inhibition (Pythium aphanidermatum; 0.1% w/v, 24 h): 4.29 ± 1.50 d %
% Growth inhibition (Pythium aphanidermatum; 0.1% w/v, 48 h): 1.00 ± 0.01 e %
% Growth inhibition (Pythium aphanidermatum; 0.5% w/v, 24 h): 13.96 ± 3.21 d %
% Growth inhibition (Pythium aphanidermatum; 0.5% w/v, 48 h): 5.35 ± 1.32 e %
% Growth inhibition (Pythium aphanidermatum; 1.0% w/v, 24 h): 66.39 ± 3.52 c %
% Growth inhibition (Pythium aphanidermatum; 1.0% w/v, 48 h): 26.01 ± 2.95 c %
% Growth inhibition (Pythium aphanidermatum; 2.0% w/v, 24 h): 81.96 ± 1.30 b %
% Growth inhibition (Pythium aphanidermatum; 2.0% w/v, 48 h): 70.87 ± 2.57 b %
% Growth inhibition (Pythium aphanidermatum; 4.0% w/v, 24 h): 82.47 ± 1.30 b %
% Growth inhibition (Pythium aphanidermatum; 4.0% w/v, 48 h): 80.01 ± 0.42 b %
growth inhibition (Escherichia coli; 1.0% (w/v)): 33.3%
concentration up to which bacterial growth was increased (Escherichia coli; series 0.01-1.0% w/v): 0.5 % (w/v)

Compound: O=C(O)CCCc1c[nH]c2ccccc12 [IBA, indole-3-butyric acid]
Average root length (mung bean cuttings): 10.1 ± 0.4^cd mm
Number of roots per cutting (mung bean cuttings): 28.3 ± 1.3^c

Compound: [Cl-].[Na+] [NaCl]
Foliage (14 days) ([2]; 75 mM): aa
Germination (4 days) ([2]; 75 mM): ++
Root ([2]; 75 mM): bbb
Foliage (14 days) ([2]; 150 mM): a
Germination (4 days) ([2]; 150 mM): +
Root ([2]; 150 mM): bb

Vitamin C level in skin ([3]; 30 minutes incubation): 259 ± 109 ng/cm^2 skin surface area
Vitamin C level in skin ([3]; 60 minutes incubation): 326 ± 131 ng/cm^2 skin surface area
Compound: O=C1O[C@H]([C@@H](O)CO)C(O)=C1O [Vitamin C, ascorbic acid]

Compound: Triton X-100
Factor increase (times) of penetration rate vs DDW [4]: 18.6 times
Penetration rate of 2,4-D (^14C) [4]: 11.00 × 10^−5 a h^−1
Factor increase (times) of penetration rate vs DDW ([4]; listed as Triton): 19.1 times
Penetration rate of 2,4-D (^14C) ([4]; listed as Triton): 0.00011 h⁻¹
